Positions of bridges follow the written chain, without caps; N, C: chain ends. No end group written: not given here.
Columns and labels:
[1] = system: Staphylococcus aureus (five reference strains ATCC 25923, ATCC 6538, ATCC 6538/P, ATCC 9144, ATCC 12598 and five clinical strains); test: MIC assay, broth microdilution; assay type: cell-based; conditions: planktonic S. aureus, 5 × 10^5 CFU/mL, 18 h, 37 °C, Figure 1, mean MIC
Procedure: Antimicrobial activity was determined against five reference strains: S. aureus ATCC 25923, S. aureus ATCC 6538, S. aureus ATCC 6538/P, S. aureus ATCC 9144, and S. aureus ATCC 12598, which were obtained from the Polish Collection of Microorganisms (Polish Academy of Sciences, Wroclaw), and against five clinical strains of S. aureus, which were provided by the Department of Oral Microbiology, Medical University of Gdańsk (Poland). These strains were also characterized in terms of methicillin resistance. Preliminary identification and detection was conducted on the ChromID MRSA/ChromID S. aureus biplate (bioMérieux) for simultaneous detection of S. aureus and methicillin-resistant S. aureus (MRSA). All tested strains (both reference and clinical S. aureus) were stored in cryo-vials (Roti®-Store, Carl Roth) and recultivated before all microbiological tests. All strains were cultured in three different media: Brain-Heart Infusion Broth (BHI, Biocorp, Warsaw, Poland), Mueller Hinton Broth (MH, Biocorp), and Tryptic-Soy Broth (TSB, Biocorp). Moreover, the stock solutions of lipopeptides were prepared in two different solvents: PBS and an aqueous solution of acetic acid/BSA (0.01% and 0.2% respectively). MIC was determined by broth microdilution method on polystyrene 96-well plates. Bacteria at initial inoculums of 5 × 10^5 CFU/mL were exposed to lipopeptides at concentrations ranging from 0.5 to 256 µg/mL and incubated for 18 h at 37 °C. The MIC value was taken as the lowest concentration of the compound that inhibited the growth of the microorganisms. All assays were performed in triplicate and included the growth and sterility control.

[2] = system: S. aureus; conditions: cited from earlier work
Description: (§1) It should be noted that conclusions drawn from the in vitro studies are not always consistent with those determined in vivo. Nevertheless, these “not-ideal” conditions may reveal an unexpected activity of new compounds. […] In this case, the MIC values decreased down to sixteenfold in the presence of plasma. The synergistic effect may be connected with complement proteins or clotting factors, as the a ...

[3] = system: Pseudomonas aeruginosa; conditions: cited from earlier work
Description: as §1

[4] = system: Enterococcus faecalis; conditions: cited from earlier work
Description: as §1

[5] = system: Escherichia coli; conditions: cited from earlier work
Description: as §1

[6] = system: Staphylococcus; conditions: previously described compounds; cited from earlier work
Description: All of the lipopeptides are palmitoylated at N-terminus and contain three or four basic amino acid residues. Moreover, compounds are amidated at C-termini to maximize positive charge. […] Arginine, as a basic amino acid, introduce positive charge; however, it has more hydrogen donor atoms and is more basic (pKa~1 ...

## Pal-CKKKRC-NH2 [Pal-CKKKRC-NH2 (linear), non-cyclized palmitoylated lipopeptide amide with two cysteine residues]
[1]
  MIC values in BHI and TSB compared with MH (influence of medium type): this dependence was not observed

## protegrin-1 (RGGRLCYCRRRFCVCVGR-NH2; disulfide 8-13, 6-15; ends not checked; UniProt P32194 131-148, looked up) [antimicrobial peptide studied by Steinberg et al. (1997)]
[2]
  fold lowering of MIC with peptide prepared in aqueous acetic acid and BSA vs reference CLSI protocol: 5 times
[3]
  fold lowering of MIC with peptide prepared in aqueous acetic acid and BSA vs reference CLSI protocol: up to 30 times
[4]
  fold lowering of MIC with peptide prepared in aqueous acetic acid and BSA vs reference CLSI protocol: 5 times
[5]
  fold lowering of MIC with peptide prepared in aqueous acetic acid and BSA vs reference CLSI protocol: up to 30 times

## Pal-RRR-NH2
[6]
  antistaphylococcal activity: high antistaphylococcal activity

## Pal-CRKKKC-NH2 (disulfide) [palmitoylated lipopeptide amide with intramolecular disulfide bridge]
[1]
  MIC values in BHI and TSB compared with MH (influence of medium type): slightly more active in MH

## Pal-KKKK-NH2
[6]
  antistaphylococcal activity: high antistaphylococcal activity

## Pal-CKKRKC-NH2 (disulfide) [palmitoylated lipopeptide amide with intramolecular disulfide bridge]
[1]
  MIC values in BHI and TSB compared with MH (influence of medium type): slightly more active in MH
